Broadly, the IC50 is the midpoint of a concentration-inhibition curve.

For one assay, the target named is T1, Kv1.3 potassium channel (Homo sapiens, UniProt P22001).
T1 construct: expressed in transfected cells
Kind of assay: Kv1.3 potassium channel blocker activity, automated whole-cell patch clamp (Patchliner). The conditions noted are these: CHO-K1 cells stably expressing Kv1.3; whole-cell current inhibition, Hill fit; read-out: Kv1.3 IC50. It counts as cell-based. As to the method: CHO-K1 cells stably expressing Kv1.3 were grown in DMEM containing 10% heat-inactivated FBS, 1 mM sodium pyruvate, 2 mM L-glutamine and G418 (500 μg/ml).
The currents were evoked by applying 100 ms depolarizing pulses from −90 mV (holding potential) to +40 mV were applied with 0.1 Hz frequency. […] 10-second breaks were used between pulse trains (see Table H below).
Passive leak currents were subtracted online using a P/4 procedure (HEKA Elektronik Dr. Schulze GmbH). […] Total compound incubation time before the next pulse train was not longer than 10 seconds. Peak current inhibition was observed during compound equilibration.
(Patch clamp records ionic current or voltage across a cell membrane.)

Assay [1] concerns the target T2, hERG channel (Homo sapiens, UniProt Q12809). The experiment in a line: hERG electrophysiology, automated whole-cell patch clamp (Patchliner). The conditions noted are these: read-out: hERG IC50; CHO-K1 cells stably expressing hERG; whole-cell current inhibition, Hill fit. (The hERG channel carries a current that helps repolarise heart muscle cells.)
Description: (§1) This assay is used to evaluate the disclosed compounds' inhibition activities against the hERG channel.
(§2) CHO-K1 cells stably expressing hERG were grown in Ham's F-12 Medium with glutamine containing 10% heat-inactivated FBS, 1% penicillin/streptomycin, hygromycin (100 μg/ml) and G418 (100 μg/ml). Cells were grown in culture flasks at 37° C. in a 5% CO2-humidified incubator.
(§3) All compounds were dissolved in DMSO at 30 mM. Compound stock solutions were freshly diluted with external solution to concentrations of 30 nM, 100 nM, 300 nM, 1 μM, 3 μM, 10 μM, 30 μM and 100 μM. The highest content of DMSO (0.3%) was present in 100 μM.
(§4) The voltage protocol (see Table I) was designed to simulate voltage changes during a cardiac action potential with a 300 ms depolarization to +20 mV (analogous to the plateau phase of the cardiac action potential), a repolarization for 300 ms to −50 mV (inducing a tail current) and a final step to the holding potential of −80 mV. The pulse frequency was 0.3 Hz. Control (compound-free) and compound pulse trains for each compound concentration applied contained 70 pulses.
(§5) Whole-cell current recordings and compound application were enabled by means of an automated patch clamp platform Patchliner (Nanion). EPC 10 patch clamp amplifier (HEKA) along with Patchmaster software (HEKA Elektronik Dr. Schulze GmbH) was used for data acquisition. Data were sampled at 10 kHz without filtering. Increasing compound concentrations were applied consecutively to the same cell without washouts in between.
(§6) AUC and PEAK values were obtained with Patchmaster (HEKA Elektronik Dr. Schulze GmbH). To determine IC50 the last single pulse in the pulse train corresponding to a given compound concentration was used. Obtained AUC and PEAK values in the presence of compound were normalized to control values in the absence of compound.
Assay [2] has as its target T2, hERG channel. Kind of assay: cell-based.
Description: as §1, §2, §3, §4, §5, §6

T2 sequence (Q12809 whole entry): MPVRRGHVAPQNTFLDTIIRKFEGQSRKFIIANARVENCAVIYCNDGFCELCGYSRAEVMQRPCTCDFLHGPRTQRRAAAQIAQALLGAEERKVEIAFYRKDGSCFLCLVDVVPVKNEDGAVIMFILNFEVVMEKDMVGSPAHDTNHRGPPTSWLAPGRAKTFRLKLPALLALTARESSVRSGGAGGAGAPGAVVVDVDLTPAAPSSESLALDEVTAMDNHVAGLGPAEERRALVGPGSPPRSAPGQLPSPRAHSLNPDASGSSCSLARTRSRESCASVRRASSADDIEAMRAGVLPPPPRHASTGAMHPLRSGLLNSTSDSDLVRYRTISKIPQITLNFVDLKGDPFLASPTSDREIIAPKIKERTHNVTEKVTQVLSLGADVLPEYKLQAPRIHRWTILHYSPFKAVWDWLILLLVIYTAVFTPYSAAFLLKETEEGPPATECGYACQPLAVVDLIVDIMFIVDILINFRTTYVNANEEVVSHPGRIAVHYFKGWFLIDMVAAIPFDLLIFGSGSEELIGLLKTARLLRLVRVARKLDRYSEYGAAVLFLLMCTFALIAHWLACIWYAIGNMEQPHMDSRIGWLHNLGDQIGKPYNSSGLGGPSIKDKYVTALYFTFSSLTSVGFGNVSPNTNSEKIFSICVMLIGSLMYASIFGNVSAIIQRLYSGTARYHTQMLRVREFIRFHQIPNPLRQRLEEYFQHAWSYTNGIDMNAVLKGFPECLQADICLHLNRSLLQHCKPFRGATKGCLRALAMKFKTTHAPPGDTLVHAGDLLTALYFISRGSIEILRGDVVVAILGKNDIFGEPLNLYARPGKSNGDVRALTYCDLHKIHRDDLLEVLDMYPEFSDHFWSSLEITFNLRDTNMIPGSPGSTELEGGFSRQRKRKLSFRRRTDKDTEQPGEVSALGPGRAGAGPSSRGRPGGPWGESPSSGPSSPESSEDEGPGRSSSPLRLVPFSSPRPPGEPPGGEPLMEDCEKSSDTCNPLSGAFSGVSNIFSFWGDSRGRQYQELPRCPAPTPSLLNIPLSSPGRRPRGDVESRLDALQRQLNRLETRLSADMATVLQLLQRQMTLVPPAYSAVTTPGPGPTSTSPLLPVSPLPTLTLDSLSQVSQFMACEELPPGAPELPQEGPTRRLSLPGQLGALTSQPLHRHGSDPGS
T1 sequence (P22001 whole entry): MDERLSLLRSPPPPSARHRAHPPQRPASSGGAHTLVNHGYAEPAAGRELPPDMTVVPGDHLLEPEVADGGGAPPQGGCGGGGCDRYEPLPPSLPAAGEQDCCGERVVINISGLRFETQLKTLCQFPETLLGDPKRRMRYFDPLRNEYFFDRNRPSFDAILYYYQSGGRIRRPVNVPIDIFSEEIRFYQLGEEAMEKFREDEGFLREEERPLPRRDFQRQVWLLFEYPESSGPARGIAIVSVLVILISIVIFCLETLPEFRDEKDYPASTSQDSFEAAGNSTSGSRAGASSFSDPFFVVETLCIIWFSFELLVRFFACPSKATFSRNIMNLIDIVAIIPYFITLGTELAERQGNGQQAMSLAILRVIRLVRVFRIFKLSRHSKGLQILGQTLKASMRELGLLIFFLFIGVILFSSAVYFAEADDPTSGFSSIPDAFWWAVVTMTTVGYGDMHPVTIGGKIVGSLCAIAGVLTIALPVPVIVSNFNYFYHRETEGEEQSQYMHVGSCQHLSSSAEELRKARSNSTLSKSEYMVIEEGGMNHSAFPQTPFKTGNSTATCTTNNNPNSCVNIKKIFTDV

On to `C[C@@H]1[C@H](c2c(O)ccc(Cl)c2Cl)CC(=O)N1C1CNC1` [Compound 82, (4S,5R)-1-(azetidin-3-yl)-4-(2,3-dichloro-6-hydroxyphenyl)-5-methylpyrrolidin-2-one], for which the IC50 at Kv1.3 potassium channel is less than 100 nM; at hERG channel [1] it was more than 30000 nM.
Regarding `NC(=O)CCN1C[C@H](c2c(O)ccc(Cl)c2Cl)CC1=O` [Compound 40, (S)-3-(4-(2,3-dichloro-6-hydroxyphenyl)-2-oxopyrrolidin-1-yl)propanamide], the IC50 at Kv1.3 potassium channel is less than 100 nM; against hERG channel [2] it was more than 100000 nM.
For the compound `O=C1N[C@@H](c2c(O)ccc(Cl)c2Cl)CN1C[C@H](O)CO` [Compound 102, (4S)-4-(2,3-dichloro-6-hydroxyphenyl)-1-[(2S)-2,3-dihydroxypropyl]imidazolidin-2-one], the IC50 is less than 100 nM at Kv1.3 potassium channel and more than 100000 nM on hERG channel [2].
The matching figures for `NCCN1C[C@H](c2c(O)ccc(Cl)c2Cl)CC1=O` [Compound 21, (4S)-1-(2-aminoethyl)-4-(2,3-dichloro-6-hydroxyphenyl)pyrrolidin-2-one]: less than 100 nM and more than 100000 nM.
The matching figures for `CC1[C@H](c2c(O)ccc(Cl)c2Cl)CC(=O)N1C[C@H](O)CO` (stereo in doubt) [Compound 79, (4S,5S)-4-(2,3-dichloro-6-hydroxyphenyl)-1-[(2S)-2,3-dihydroxypropyl]-5-methylpyrrolidin-2-one]: less than 100 nM and more than 30000 nM.
Turning to `O=C1C[C@@H](c2c(O)ccc(Cl)c2Cl)CN1C[C@@H](O)CO` [Compound 33, (4S)-4-(2,3-dichloro-6-hydroxyphenyl)-1-[(2R)-2,3-dihydroxypropyl]pyrrolidin-2-one], the IC50 on Kv1.3 potassium channel was less than 100 nM; on hERG channel [2], more than 100000 nM.
In the case of `O=C1N[C@@H](c2c(O)ccc(Cl)c2Cl)CN1CCCO` [Compound 104, (4S)-4-(2,3-dichloro-6-hydroxyphenyl)-1-(3-hydroxypropyl)imidazolidin-2-one], the IC50 at Kv1.3 potassium channel is less than 100 nM; against hERG channel [2] it was more than 100000 nM.
The matching figures for `C[C@H]1[C@H](c2c(O)ccc(Cl)c2Cl)NC(=O)N1CCCO` (relative stereo) [Compound 101, (4S,5S)-rel-4-(2,3-dichloro-6-hydroxyphenyl)-1-(3-hydroxypropyl)-5-methylimidazolidin-2-one]: less than 100 nM and more than 30000 nM.
The matching figures for `CN(C)C(=O)CCN1C[C@H](c2c(O)ccc(Cl)c2Cl)CC1=O` [Compound 41, (S)-3-(4-(2,3-dichloro-6-hydroxyphenyl)-2-oxopyrrolidin-1-yl)-N,N-dimethylpropanamide]: less than 100 nM and more than 100000 nM.
The matching figures for `O=C1C[C@@H](c2c(O)ccc(Cl)c2Cl)CN1C[C@H]1C[C@@H](O)C1` (single isomer, unassigned; isomer 2) [Compound 32]: less than 100 nM and more than 30000 nM.
`O=C1C[C@@H](c2c(O)ccc(Cl)c2Cl)CN1[C@H]1C[C@@](O)(CO)C1` (single isomer, unassigned; isomer 3) [Compound 70]: the figures for the IC50 at Kv1.3 potassium channel and at hERG channel [2] were less than 100 nM and more than 100000 nM, respectively.
Regarding `CC(O)(CO)CN1C[C@H](c2c(O)ccc(Cl)c2Cl)CC1=O` (stereo partly drawn) [Compound 55, (4S)-4-(2,3-dichloro-6-hydroxyphenyl)-1-(2,3-dihydroxy-2-methylpropyl)pyrrolidin-2-one], the figures for the concentration for half-maximal inhibition (IC50) on Kv1.3 potassium channel and against hERG channel [2] were less than 1000 nM and more than 100000 nM, respectively.
As to `O=C1C[C@@H](c2c(O)ccc(Cl)c2Cl)CN1c1ccncc1` [Compound 64, (S)-4-(2,3-dichloro-6-hydroxyphenyl)-1-(pyridin-4-yl)pyrrolidin-2-one], the half-maximal inhibitory concentration (IC50) on Kv1.3 potassium channel is less than 100 nM; at hERG channel [2], more than 10000 nM.
The matching figures for `CC(CO)N1C[C@H](c2c(O)ccc(Cl)c2Cl)CC1=O` (single isomer, unassigned; isomer 1) [Compound 38]: less than 1000 nM and more than 30000 nM.
The matching figures for `O=C1C[C@@H](c2c(O)ccc(Cl)c2Cl)CN1c1cn[nH]c1` [Compound 58, (S)-4-(2,3-dichloro-6-hydroxyphenyl)-1-(1H-pyrazol-4-yl)pyrrolidin-2-one]: less than 100 nM and more than 30000 nM.
Take `O=C1C[C@@H](c2cc(Cl)c(Cl)cc2O)CN1C1CNC1` [Compound 22, (4S)-1-(azetidin-3-yl)-4-(4,5-dichloro-2-hydroxyphenyl)pyrrolidin-2-one]: the concentration for half-maximal inhibition (IC50) on Kv1.3 potassium channel was less than 1000 nM; against hERG channel [2], more than 100000 nM.
Take `O=C1C[C@@H](c2c(O)ccc(Cl)c2Cl)CN1C[C@H]1C[C@H](O)C1` (single isomer, unassigned; isomer 1) [Compound 31]: the IC50 at Kv1.3 potassium channel is less than 100 nM; at hERG channel [2] it was more than 30000 nM.
The matching figures for `O=C1CNCCN1CCN1C[C@H](c2c(O)ccc(Cl)c2Cl)CC1=O` [Compound 75, 1-[2-[(4S)-4-(2,3-dichloro-6-hydroxyphenyl)-2-oxopyrrolidin-1-yl]ethyl]piperazin-2-one]: less than 100 nM and more than 30000 nM.
The matching figures for `COCCCN1C[C@H](c2c(O)ccc(Cl)c2Cl)CC1=O` [Compound 44, (S)-4-(2,3-dichloro-6-hydroxyphenyl)-1-(3-methoxypropyl)pyrrolidin-2-one]: less than 100 nM and more than 10000 nM.
The matching figures for `Cc1ncc(N2C[C@H](c3c(O)ccc(Cl)c3Cl)CC2=O)s1` [Compound 67, (S)-4-(2,3-dichloro-6-hydroxyphenyl)-1-(2-methylthiazol-5-yl)pyrrolidin-2-one]: less than 100 nM and more than 100000 nM.
In the case of `Cn1cc(N2C[C@H](c3c(O)ccc(Cl)c3Cl)NC2=O)cn1` [Compound 100, (4S)-4-(2,3-dichloro-6-hydroxyphenyl)-1-(1-methylpyrazol-4-yl)imidazolidin-2-one], the IC50 at Kv1.3 potassium channel is less than 100 nM; on hERG channel [2], more than 30000 nM.
In the case of `Nc1ccc(N2C[C@H](c3c(O)ccc(Cl)c3Cl)CC2=O)cn1` [Compound 61, (S)-1-(6-aminopyridin-3-yl)-4-(2,3-dichloro-6-hydroxyphenyl)pyrrolidin-2-one], the IC50 on Kv1.3 potassium channel was less than 100 nM; against hERG channel [2], more than 10000 nM.
As for `CC1[C@H](c2c(O)ccc(Cl)c2Cl)CC(=O)N1C1CNC1` (stereo in doubt) [Compound 77, (4S,5S)-1-(azetidin-3-yl)-4-(2,3-dichloro-6-hydroxyphenyl)-5-methylpyrrolidin-2-one], the half-inhibitory concentration (IC50) on Kv1.3 potassium channel was less than 100 nM; on hERG channel [2], more than 30000 nM.
`O=C1C[C@H](c2c(O)ccc(Cl)c2Cl)CN1[C@H]1CCNC1` (single isomer, unassigned) [Compound 15, 4-(2,3-dichloro-6-hydroxyphenyl)-[1,3-bipyrrolidin]-2-one]: the IC50 at Kv1.3 potassium channel was less than 100 nM; on hERG channel [2], more than 30000 nM.
The matching figures for `Nc1cc(N2C[C@H](c3c(O)ccc(Cl)c3Cl)CC2=O)ccn1` [Compound 62, (S)-1-(2-aminopyridin-4-yl)-4-(2,3-dichloro-6-hydroxyphenyl)pyrrolidin-2-one]: less than 100 nM and more than 1000 nM.
For `O=C1O[C@H](c2c(O)ccc(Cl)c2Cl)CN1CCO` (single isomer, unassigned; isomer 1) [Compound 93, 5-(2,3-dichloro-6-hydroxyphenyl)-3-(2-hydroxyethyl)oxazolidin-2-one isomer 1], the IC50 was less than 1000 nM at Kv1.3 potassium channel and more than 100000 nM against hERG channel [2].
The matching figures for `O=C1C[C@@H](c2c(O)ccc(Cl)c2Cl)CN1[C@H]1CCNC1` (single isomer, unassigned) [Compound 12, 4-(2,3-dichloro-6-hydroxyphenyl)-[1,3-bipyrrolidin]-2-one]: less than 1000 nM and more than 30000 nM.
`C[C@@H](CO)N1C[C@H](c2c(O)ccc(Cl)c2Cl)CC1=O` (single isomer, unassigned; isomer 2) [Compound 39]: the IC50 is less than 1000 nM at Kv1.3 potassium channel and more than 100000 nM at hERG channel [2].
The matching figures for `O=C1C[C@@H](c2c(O)ccc(Cl)c2Cl)CCN1[C@H]1CCNC1` (single isomer, unassigned) [Compound 2, 4-(2,3-dichloro-6-hydroxyphenyl)-1-[pyrrolidin-3-yl]piperidin-2-one]: less than 100 nM and more than 30000 nM.
Take `O=C1N[C@@H](c2c(O)ccc(Cl)c2Cl)CN1C[C@@H](O)CO` [Compound 103, (4S)-4-(2,3-dichloro-6-hydroxyphenyl)-1-[(2R)-2,3-dihydroxypropyl]imidazolidin-2-one]: the IC50 at Kv1.3 potassium channel is less than 1000 nM; against hERG channel [2], more than 100000 nM.
The matching figures for `O=C1CC(c2c(O)ccc(Cl)c2Cl)CCN1C1CCNC1` (single isomer, unassigned) [Compound 1, 4-(2,3-dichloro-6-hydroxyphenyl)-1-[pyrrolidin-3-yl]piperidin-2-one]: less than 100 nM and more than 30000 nM.
As to `NCCCN1C[C@H](c2c(O)ccc(Cl)c2Cl)CC1=O` [Compound 43, (4S)-1-(3-aminopropyl)-4-(2,3-dichloro-6-hydroxyphenyl)pyrrolidin-2-one], the IC50 on Kv1.3 potassium channel is less than 10 nM; against hERG channel [2] it was more than 30000 nM.
The matching figures for `O=C1C[C@@H](c2c(O)ccc(Cl)c2Cl)CN1C1CN(CCO)C1` [Compound 16, (4S)-4-(2,3-dichloro-6-hydroxyphenyl)-1-[1-(2-hydroxyethyl)azetidin-3-yl]pyrrolidin-2-one]: less than 100 nM and more than 10000 nM.
The matching figures for `C[C@H]1[C@H](c2c(O)ccc(Cl)c2Cl)CC(=O)N1CCCO` [Compound 86, (4S,5S)-4-(2,3-dichloro-6-hydroxyphenyl)-1-(3-hydroxypropyl)-5-methylpyrrolidin-2-one]: less than 100 nM and more than 30000 nM.

For the origin of these results see US20230373952A1, “LACTAM COMPOUNDS AS Kv1.3 POTASSIUM SHAKER CHANNEL BLOCKERS” (D.E. Shaw Research, LLC, priority 2020, published 2023).
